Experimental data: patent publication US7041470B2, “Method of assaying the susceptibility of biofilms to anti-microbial agents” (University Technologies International, Inc., priority 1996, dated 2006)

What was measured:
[1] = tested on: staphylococcus aureus biofilm; assay: staphylococcus aureus biofilm on projections, antibiotic treatment, manual cfu count; assay type: cell-based
Description: (§1) Up to 8 different antibiotics or biocides can be tested by using 1 row (A-H) for each antimicrobial reagent. […] Rinse the remaining projections in PBS using a troughed vessel 20 and place the colonized projections into the 96 well antibiotic plate and incubate overnight at 37° C. […] (3) From the freshly sonicated plate remove 0.02 ml of the medium from each well and spot plate neat; and 0.025 ml from each well to prepare a serial dilution (10^-1 to 10^-6) and spot plate 0.02 ml (dilutions can be done in microtiter plates, one for each antibiotic). Place the plate containing the remaining medium and bacteria to incubate at 37° C., overnight. Day 4: Assay the sessile survival, by for example reading the plate incubated overnight at 490 nm or by counting the colonies on the plates to determine the actual number of surviving bacteria, or by using some other method known in the art. Several different conventional methods may be used to count the bacteria. It may be done by incubating the sonicated bacteria, taking serial dilutions and visually counting the colony forming units, or automated methods may be used, as for example using an optical reader to determine optical density. […] In the case of using vital dye technology, the biofilm need not be further incubated. In a further embodiment, the assay may be carried out by sonicating the cells until they lyse and release ATP and then adding luciferase to produce a mechanically readable light output. In a still further embodiment, the assay may be carried out directly on the biofilm on the projections using a confocal microscope, although it should be considered that this is difficult to automate. […] Examples are given to show a comparison between counts of planktonic bacteria and counts of sessile bacteria for the same growth conditions. […] The antibiotic was applied to the wells 2-12 of the rows A-G of a 96 well plate as follows: well 2: no antibiotic, well 3: 1000 μg/mL, well 4: 500 μg/mL . . . well 12: 2 μg/mL.

[2] = tested on: Escherichia coli biofilm; assay: Escherichia coli biofilm on projections, antibiotic treatment, manual cfu count; assay type: cell-based
Description: as §1, with “(10^−1” for “(10^-1”, “10^−6)” for “10^-6)”, “The initial biofilm was colonized for four hours. The” for “The”, “A-H” for “A-G”, “μg/mL. 250 μL final volume of diluted antibiotic was applied to the wells.” for “μg/mL.”

[3] = well 5 of doubling dilutions, well 3: 1000 μg/mL to well 12: 2 μg/mL
[4] = well 6 of doubling dilutions, well 3: 1000 μg/mL to well 12: 2 μg/mL ([…] implied)
[5] = well 7 of doubling dilutions, well 3: 1000 μg/mL to well 12: 2 μg/mL
[6] = well 8 of doubling dilutions, well 3: 1000 μg/mL to well 12: 2 μg/mL
[7] = well 10 of doubling dilutions, well 3: 1000 μg/mL to well 12: 2 μg/mL ([…] implied)
[8] = well 11 of doubling dilutions, well 3: 1000 μg/mL to well 12: 2 μg/mL

O=C(O)c1cn(C2CC2)c2cc(N3CCNCC3)c(F)cc2c1=O [G, Ciprofloxacin]
0 cfu: manually counted cfu, staphylococcus aureus biofilm ([1]; well 3: 1000 μg/mL antibiotic) | manually counted cfu, staphylococcus aureus biofilm ([1]; well 4: 500 μg/mL antibiotic) | manually counted cfu, staphylococcus aureus biofilm [1, 3] | manually counted cfu, staphylococcus aureus biofilm ([1]; well 9 of doubling dilutions, well 3: 1000 μg/mL to well 12: 2 μg/mL) | manually counted cfu, staphylococcus aureus biofilm [1, 7] | manually counted cfu, staphylococcus aureus biofilm [1, 8] | manually counted cfu, staphylococcus aureus biofilm ([1]; well 12: 2 μg/mL antibiotic) | manually counted cfu, Escherichia coli biofilm ([2]; well 3: 1000 μg/mL antibiotic, biofilm colonized four hours) | manually counted cfu, Escherichia coli biofilm ([2]; well 4: 500 μg/mL antibiotic, biofilm colonized four hours) | manually counted cfu, Escherichia coli biofilm [2, 3] | manually counted cfu, Escherichia coli biofilm [2, 4] | manually counted cfu, Escherichia coli biofilm [2, 5] | manually counted cfu, Escherichia coli biofilm [2, 6] | manually counted cfu, Escherichia coli biofilm [2, 7] | manually counted cfu, Escherichia coli biofilm [2, 8]
50 cfu: manually counted cfu, staphylococcus aureus biofilm [1, 4] | manually counted cfu, staphylococcus aureus biofilm [1, 6]
1.0 × 10^2 cfu: manually counted cfu, staphylococcus aureus biofilm [1, 5]
